# Results published in US7105558B2, “Gastrin and cholecystokinin receptor lignads (iv)” (The James Black Foundation Limited, priority 2000, dated 2006).
# Target: T1, gastrin (CCK2) receptors (Rattus norvegicus, UniProt P30553)
# T1 construct: The stomach was excised and flushed with ca. 1 ml of unbuffered physiological saline solution; from tissue; host or cells: isolated whole stomach of immature rats (33-50 g, ca. 21 days old)
# T1 sequence (P30553 1-452): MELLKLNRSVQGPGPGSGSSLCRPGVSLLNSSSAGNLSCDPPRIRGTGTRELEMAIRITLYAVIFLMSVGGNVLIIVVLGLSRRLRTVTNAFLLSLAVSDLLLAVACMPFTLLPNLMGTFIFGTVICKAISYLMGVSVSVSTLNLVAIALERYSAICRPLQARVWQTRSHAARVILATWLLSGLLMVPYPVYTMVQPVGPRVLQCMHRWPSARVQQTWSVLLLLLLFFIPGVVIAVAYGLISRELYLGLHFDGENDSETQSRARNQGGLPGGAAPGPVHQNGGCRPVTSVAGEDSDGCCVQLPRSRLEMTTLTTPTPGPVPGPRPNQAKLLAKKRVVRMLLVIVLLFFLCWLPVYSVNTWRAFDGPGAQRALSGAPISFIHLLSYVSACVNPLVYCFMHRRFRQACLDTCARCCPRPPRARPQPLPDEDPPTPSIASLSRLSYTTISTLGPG
# Assay: immature rat stomach assay for gastrin (CCK2) antagonist activity (pentagastrin-stimulated acid secretion)
# Details: isolated immature rat stomach, antagonism of pentagastrin dose-response curves, 60 min incubation; tested as N-methyl D-glucamine salts; read-out: Rat stomach pKB (converted)
# Procedure: The compounds of the examples were tested for gastrin (CCK2) antagonist activity in an immature rat stomach assay. The procedure was as follows:
# The oesophagus of immature rats (33-50 g, ca. 21 days old) was ligated at the level of the cardiac sphincter and the duodenal sphincter was cannulated. The stomach was excised and flushed with ca. 1 ml of unbuffered physiological saline solution. The fundus was punctured and cannulated. A further 4-5 ml of unbuffered solution was flushed through the stomach to ensure the preparation was not leaking. The stomach was lowered into a jacketed organ bath containing 40 ml of buffered solution containing 3×10^−8 M 5-methylfurmethide, maintained at 37° and gassed vigorously with 95% O2/5% CO2. The stomach was continuously perfused at a rate of 1 ml min^−1 with unbuffered solution gassed with 100% O2 with the perfusate passing over an internally referenced pH-electrode fixed 12 cm above the stomach.
# After 120 min of stabilisation the drugs were added directly to the serosal solution in the organ bath and after a further 60 min cumulative pentagastrin dose-response curves were started. Changes in acid secretion were monitored and the curves analysed according to Black et al, Br. J. Pharmacol., 1985, 86, 581.
row,Compound,Kb
1,"O=C(O)c1cccc(NC(=O)c2nn(-c3ccccc3Cl)nc2COC23CC4CC(CC(C4)C2)C3)c1 [Example 5, 3-[[5-(Adamantan-1-yloxymethyl)-2-(2-chloro-phenyl)-2H-[1,2,3]triazole-4-carbonyl]-amino]-benzoic acid]",30.9 nM
2,"O=C(O)c1cccc(NC(=O)c2nnn(-c3ccccc3Br)c2COC23CC4CC(CC(C4)C2)C3)c1 [Example 14, 3-[[5-(Adamantan-1-yloxymethyl)-1-(2-bromo-phenyl)-1H-[1,2,3]triazole-4-carbonyl]-amino]-benzoic acid]",229 nM
3,"O=C(O)c1cccc(NC(=O)c2nn(-c3ccccc3)nc2COC23CC4CC(CC(C4)C2)C3)c1 [Example 20, 3-[[5-(Adamantan-1-yloxymethyl)-2-phenyl-2H-[1,2,3]triazole-4-carbonyl]-amino]-benzoic acid]",2090 nM
